# Calls of active or inactive are those of the source. The rule behind the calls is not given here.
# Tests used:
# [1] = target: T1, Prostaglandin G/H synthase 1 (Mus musculus) (UniProt P22437); assay: Inhibition of COX1 in mouse J774 cells using arachidonic acid as substrate assessed as decrease in PGE2 production at 10 uM preincubated for 15 mins followed by substrate addition measured after 30 mins by radioimmunoassay relative to control; format: cell-based
# T1 sequence (whole entry): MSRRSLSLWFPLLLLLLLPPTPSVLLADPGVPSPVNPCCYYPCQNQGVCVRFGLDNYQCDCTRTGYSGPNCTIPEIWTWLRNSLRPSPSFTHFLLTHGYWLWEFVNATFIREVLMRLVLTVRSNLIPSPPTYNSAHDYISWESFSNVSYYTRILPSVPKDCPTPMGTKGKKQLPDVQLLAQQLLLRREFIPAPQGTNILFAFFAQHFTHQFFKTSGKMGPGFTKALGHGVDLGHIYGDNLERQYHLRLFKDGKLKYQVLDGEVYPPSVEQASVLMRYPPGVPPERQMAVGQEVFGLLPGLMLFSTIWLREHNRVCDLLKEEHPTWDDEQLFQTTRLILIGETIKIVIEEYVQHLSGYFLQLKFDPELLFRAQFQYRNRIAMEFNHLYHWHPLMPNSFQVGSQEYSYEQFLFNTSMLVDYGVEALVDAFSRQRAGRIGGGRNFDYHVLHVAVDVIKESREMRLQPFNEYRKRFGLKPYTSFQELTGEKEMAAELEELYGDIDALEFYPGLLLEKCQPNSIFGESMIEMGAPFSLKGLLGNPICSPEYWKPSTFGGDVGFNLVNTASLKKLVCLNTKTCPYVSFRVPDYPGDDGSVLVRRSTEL
# Liver [2] = assay: Induction of nitric oxide release in rat liver assessed as time require for amount of nitrite release by test compound equal to half its maximum release at 1 mM by amperometric method; format: functional
# [3] = Vasorelaxing effect in Wistar rat thoracic aorta ring assessed as reduction of KCl-induced contractile tone at 10 uM in presence of guanylate cyclase inhibitor ODQ1; format: functional
# Liver [4] = assay: Induction of nitric oxide release in rat liver assessed as increase in nitrite levels at 1 mM by amperometric method; format: functional, tissue-based; details: TDE = time-dependent effect
smiles,measurement,setting,value
Cc1c(CC(=O)NC(CCO[N+](=O)[O-])C(=O)O)cc(-c2ccc(S(C)(=O)=O)cc2)n1-c1ccc(F)cc1 (racemic),inhibition,[1],< 20%
Cc1c(CCOCCO[N+](=O)[O-])cc(-c2ccc(S(C)(=O)=O)cc2)n1-c1ccccc1,inhibition,[1],< 20%
Cc1c(C(N)C(=O)OCCO[N+](=O)[O-])cc(-c2ccc(S(C)(=O)=O)cc2)n1-c1ccc(F)cc1 (racemic),inhibition,[1],< 20%
Cc1c(CC(=O)NCCO)cc(-c2ccc(S(C)(=O)=O)cc2)n1-c1cccc(F)c1,inhibition,[1],< 20%
Cc1c(CCOCCO)cc(-c2ccc(S(C)(=O)=O)cc2)n1-c1ccc(F)c(F)c1,inhibition,[1],< 20%
O=C(NCCO[N+](=O)[O-])c1cccnc1,T1/2,Liver [2],0.463 h
COc1ccc(-n2c(-c3ccc(S(C)(=O)=O)cc3)cc(CC(=O)OCCCO[N+](=O)[O-])c2C)cc1,inhibition,[1],< 20%
COc1ccc(-n2c(-c3ccc(S(C)(=O)=O)cc3)cc(CC(=O)OCCCO)c2C)cc1,inhibition,[1],< 20%
Cc1c(CC(=O)OCCCO[N+](=O)[O-])cc(-c2ccc(S(C)(=O)=O)cc2)n1-c1cccc(F)c1,inhibition,[1],< 20%
Cc1c(CC(=O)OCCCO)cc(-c2ccc(S(C)(=O)=O)cc2)n1-c1cccc(F)c1,inhibition,[1],< 20%
Cc1c(CCOCCCO)cc(-c2ccc(S(C)(=O)=O)cc2)n1-c1ccc(F)cc1,inhibition,[1],< 20%
Cc1c(CCOCCO[N+](=O)[O-])cc(-c2ccc(S(C)(=O)=O)cc2)n1-c1ccc(F)cc1,inhibition,[1],< 20%
same,T1/2,Liver [2],0.713 h
Cc1c(CC(=O)NC(CCO[N+](=O)[O-])C(=O)O)cc(-c2ccc(S(C)(=O)=O)cc2)n1-c1cccc(F)c1 (racemic),inhibition,[1],< 20%
Cc1c(CC(=O)OCCCCO[N+](=O)[O-])cc(-c2ccc(S(C)(=O)=O)cc2)n1-c1ccc(F)cc1,inhibition,[1],< 20%
Cc1c(CC(=O)OCC(CO[N+](=O)[O-])O[N+](=O)[O-])cc(-c2ccc(S(C)(=O)=O)cc2)n1-c1ccccc1 (racemic),inhibition,[1],< 20%
CSc1ccc(-n2c(-c3ccc(S(C)(=O)=O)cc3)cc(CC(=O)OCCCCO)c2C)cc1,inhibition,[1],< 20%
COc1ccc(-n2c(-c3ccc(S(C)(=O)=O)cc3)cc(CC(=O)OCCO)c2C)cc1,inhibition,[1],< 20%
COc1ccc(-n2c(-c3ccc(S(C)(=O)=O)cc3)cc(CC(=O)OCCCCO[N+](=O)[O-])c2C)cc1,inhibition,[1],< 20%
Cc1c(CC(=O)NCCO)cc(-c2ccc(S(C)(=O)=O)cc2)n1-c1ccc(F)cc1,inhibition,[1],< 20%
CSc1ccc(-n2c(-c3ccc(S(C)(=O)=O)cc3)cc(CC(=O)OCCO[N+](=O)[O-])c2C)cc1,inhibition,[1],< 20%
Cc1c(CC(=O)OCCO)cc(-c2ccc(S(C)(=O)=O)cc2)n1-c1cccc(F)c1,inhibition,[1],< 20%
Cc1c(CCOCCCO[N+](=O)[O-])cc(-c2ccc(S(C)(=O)=O)cc2)n1-c1ccc(F)cc1,inhibition,[1],< 20%
COc1ccc(-n2c(-c3ccc(S(C)(=O)=O)cc3)cc(CC(=O)OCCCCO)c2C)cc1,inhibition,[1],< 20%
Cc1c(CC(=O)OCCO[N+](=O)[O-])cc(-c2ccc(S(C)(=O)=O)cc2)n1-c1cccc(F)c1,inhibition,[1],< 20%
Cc1c(CCOCCO[N+](=O)[O-])cc(-c2ccc(S(C)(=O)=O)cc2)n1-c1ccc(F)c(F)c1,inhibition,[1],< 20%
same,T1/2,Liver [2],1.14 h
Cc1c(CCOCCO[N+](=O)[O-])cc(-c2ccc(S(C)(=O)=O)cc2)n1-c1cccc(F)c1,inhibition,[1],< 20%
same,T1/2,Liver [2],1.01 h
Cc1c(CCOCCO)cc(-c2ccc(S(C)(=O)=O)cc2)n1-c1ccccc1,inhibition,[1],< 20%
Cc1c(CCOCCCO)cc(-c2ccc(S(C)(=O)=O)cc2)n1-c1cccc(F)c1,inhibition,[1],< 20%
Cc1c(C(N)C(=O)OCCCO[N+](=O)[O-])cc(-c2ccc(S(C)(=O)=O)cc2)n1-c1ccc(F)cc1 (racemic),inhibition,[1],< 20%
same,Activity,[3],Active
Cc1c(CC(=O)OCCCCO)cc(-c2ccc(S(C)(=O)=O)cc2)n1-c1cccc(F)c1,inhibition,[1],< 20%
Cc1c(CC(=O)OCCO)cc(-c2ccc(S(C)(=O)=O)cc2)n1-c1ccc(F)cc1,inhibition,[1],< 20%
Cc1c(CCOCCCO[N+](=O)[O-])cc(-c2ccc(S(C)(=O)=O)cc2)n1-c1ccccc1,inhibition,[1],< 20%
Cc1c(CC(=O)OCCCCO[N+](=O)[O-])cc(-c2ccc(S(C)(=O)=O)cc2)n1-c1cccc(F)c1,inhibition,[1],< 20%
CSc1ccc(-n2c(-c3ccc(S(C)(=O)=O)cc3)cc(CC(=O)OCCCO[N+](=O)[O-])c2C)cc1,inhibition,[1],< 20%
Cc1c(CC(=O)NCCO[N+](=O)[O-])cc(-c2ccc(S(C)(=O)=O)cc2)n1-c1ccc(F)cc1,inhibition,[1],< 20%
Cc1c(CC(=O)OCCO)cc(-c2ccc(S(C)(=O)=O)cc2)n1-c1ccccc1,inhibition,[1],< 20%
Cc1c(CC(=O)NC(CCO)C(=O)O)cc(-c2ccc(S(C)(=O)=O)cc2)n1-c1ccc(F)cc1 (racemic),inhibition,[1],< 20%
COc1ccc2cc([C@H](C)C(=O)OCCCCO[N+](=O)[O-])ccc2c1,Activity,Liver [4],Tde
Cc1c(C(N)C(=O)OCCCCO[N+](=O)[O-])cc(-c2ccc(S(C)(=O)=O)cc2)n1-c1ccc(F)cc1 (racemic),inhibition,[1],< 20%
same,Activity,[3],Active
Cc1c(CCOCCCO[N+](=O)[O-])cc(-c2ccc(S(C)(=O)=O)cc2)n1-c1cccc(F)c1,inhibition,[1],< 20%
same,T1/2,Liver [2],1.41 h
same,Activity,Liver [4],Tde
CSc1ccc(-n2c(-c3ccc(S(C)(=O)=O)cc3)cc(CC(=O)OCCO)c2C)cc1,inhibition,[1],< 20%
CSc1ccc(-n2c(-c3ccc(S(C)(=O)=O)cc3)cc(CC(=O)OCCCCO[N+](=O)[O-])c2C)cc1,inhibition,[1],< 20%
same,Activity,[3],Active
Cc1c(CCOCCO)cc(-c2ccc(S(C)(=O)=O)cc2)n1-c1cccc(F)c1,inhibition,[1],< 20%
Cc1c(CC(=O)OCCO[N+](=O)[O-])cc(-c2ccc(S(C)(=O)=O)cc2)n1-c1ccc(F)cc1,inhibition,[1],< 20%
same,T1/2,Liver [2],1.15 h
COc1ccc(-n2c(-c3ccc(S(C)(=O)=O)cc3)cc(CC(=O)OCCO[N+](=O)[O-])c2C)cc1,inhibition,[1],< 20%
CSc1ccc(-n2c(-c3ccc(S(C)(=O)=O)cc3)cc(CC(=O)OCCCO)c2C)cc1,inhibition,[1],< 20%
Cc1c(CC(=O)N[C@@H](CO)C(=O)O)cc(-c2ccc(S(C)(=O)=O)cc2)n1-c1cccc(F)c1,inhibition,[1],< 20%
Cc1c(CC(=O)NCCCO)cc(-c2ccc(S(C)(=O)=O)cc2)n1-c1ccc(F)cc1,inhibition,[1],< 20%
Cc1c(CCOCCO)cc(-c2ccc(S(C)(=O)=O)cc2)n1-c1ccc(F)cc1,inhibition,[1],< 20%
Cc1c(CC(=O)N[C@@H](CO[N+](=O)[O-])C(=O)O)cc(-c2ccc(S(C)(=O)=O)cc2)n1-c1cccc(F)c1,inhibition,[1],< 20%
Cc1c(CC(=O)OCCO[N+](=O)[O-])cc(-c2ccc(S(C)(=O)=O)cc2)n1-c1ccccc1,inhibition,[1],< 20%
Cc1c(CC(=O)N[C@@H](CO[N+](=O)[O-])C(=O)O)cc(-c2ccc(S(C)(=O)=O)cc2)n1-c1ccc(F)cc1,inhibition,[1],< 20%
Cc1c(CC(=O)N[C@@H](CO)C(=O)O)cc(-c2ccc(S(C)(=O)=O)cc2)n1-c1ccc(F)cc1,inhibition,[1],< 20%
Cc1c(CC(=O)NCCCO)cc(-c2ccc(S(C)(=O)=O)cc2)n1-c1cccc(F)c1,inhibition,[1],< 20%

# Reference: ChEMBL document CHEMBL3880420, “1,5-Diaryl-2-alkylpyrrole-3-Substituted Nitro Esters, Selective COX-2 Inhibitors and Nitric Oxide Donors” (2013)
